Structures can show the parent of a compound that is named as a salt. Where two headings read alike, the source gives them in different places.
Key:
[1] = PK test of in vivo efficacy: plasma and tumor tissue drug concentration on day 20 of the CT26 study; parameters: species or system BALB/C mice; conditions: mouse; for concentration at 1 h / concentration at 4 h / Kp at 4 h / Kp at 1 h: oral; for concentration at 1 h / Kp at 1 h: time point 1 h; for concentration at 1 h / concentration at 4 h: tumor tissue; for concentration at 4 h / Kp at 4 h: time point 4 h; for AUC(0-t) / Cmax / Tmax / half-life: plasma, po, day 20; for half-life: read-out: T½ (converted); for Kp at 4 h / Kp at 1 h: tumor tissue / plasma, read-out: T/P* Ratio (tumor tissue / plasma drug concentration)
Protocol: The experiment was conducted on the basis of experimental example 3, on the 20th day after administration, blood samples and tissues were collected from each group at different time points (0 h, 0.25 h, 0.5 h, 1 h, 2 h, 4 h, 8 h and 24 h) after administration.

[2] = tested on: mouse colon cancer CT26 cells; test: In vivo pharmacodynamic test, CT26 subcutaneous tumor model, alone or combined with CS1003; parameters: species or system BALB/C mice; conditions: for tumor inhibition rate: day 20
Protocol: Experimental materials: BALB/C mice (female); mouse colon cancer CT26 cells (Typical Culture Preservation Commission cell bank, Chinese Academy of Sciences) were cultured in vitro in monolayer with RPMI-1640 medium containing 10% fetal bovine serum in a 37° C., 5% CO2 incubator. Trypsin-EDTA was used for routine digestion and passage. When the cells were in exponential growth phase and the saturation was 80%-90%, the cells were collected and counted.
Compound preparation: Embodiment 19 was weighted and added into the menstruum (10% PEG400+90% (10% Cremophor aqueous solution)) to prepare samples of 2.5 mg/mL, 5 mg/mL and 10 mg/mL respectively. 72 μL CS1003 (PD-1 antibody) solution (25 mg/mL) was taken and 1.728 mL Dulbecco's phosphate buffer (DPBS) was added to prepare a 1 mg/mL solution, then 16.2 mL DPBS was added to prepare a 0.1 mg/mL clear solution.
Experimental operation: the cells were resuspended in Dulbecco's phosphate buffer at a density of 3×10^6 cells/mL. 0.1 mL DPBS (containing 3×10^5 CT26 cells) was subcutaneously inoculated on the right back of each mouse. On the day of inoculation, the mice were randomly divided into groups with 9 mice each group according to the weight of the mice, then administration was started and continued for 20 days. During the whole experiment, the animals were weighed and the animal's health was monitored every day, in case of any special situation, the person in charge of the relevant project would be informed in time and the corresponding records would be made. Tumor diameter was measured twice a week with a vernier caliper. The calculation formula of the tumor volume was: V=0.5×a×b^2, wherein a and b represent the long and short diameters of the tumor respectively.
The antitumor effect of the compounds was evaluated by GI (%) or relative tumor proliferation rate T/C (%). Relative tumor proliferation rate T/C (%)=Vt/VC×100% (Vt: average tumor volume of treatment group; Vc: average tumor volume of negative control group). Vt and VC were the data on the same day. GI (%), tumor inhibition rate. GI (%)=1−Vt/VC×100%.
Statistical analysis was conducted using SPSS software based on the relative tumor volume and tumor weight at the end of the experiment. […] P<0.05 was considered as significant difference.

[3] = BALB/C, 50 mg/kg, Group 7, 50 mpk twice a day alone
[4] = BALB/C, 100 mg/kg, Group 3, 100 mpk alone
[5] = BALB/C, 25 mg/kg, Group 4: 25 mg/kg once a day PO + CS1003 1 mg/kg
[6] = BALB/C, 50 mg/kg, Group 5: 50 mg/kg once a day PO + CS1003 1 mg/kg
[7] = BALB/C, 50 mg/kg, Group 7: 50 mg/kg twice a day PO alone
[8] = BALB/C, 50 mg/kg, Group 8: 50 mg/kg twice a day PO + CS1003 1 mg/kg
[9] = BALB/C, 100 mg/kg, Group 3: 100 mg/kg once a day PO alone
[10] = BALB/C, 100 mg/kg, Group 6: 100 mg/kg once a day PO + CS1003 1 mg/kg
[11] = BALB/c, 50 mpk, Group 5, 50 mpk once a day + CS1003
[12] = BALB/c, 100 mpk, Group 3, 100 mpk alone
[13] = BALB/c, 100 mpk, Group 6, 100 mpk + CS1003

SMILES: Nc1nc(-c2ccc(F)cc2)c(-c2ccc3ncnn3c2)c2nccnc12 [Embodiment 6 hydrochloride]
- concentration at 1 h [1, 3]: 3.69 µM
- concentration at 4 h [1, 3]: 0.901 µM
- concentration at 1 h [1, 4]: 17.5 µM
- concentration at 4 h [1, 4]: 10.6 µM
- AUC(0-t) [1, 5]: 23.5 µM·h
- Cmax [1, 5]: 32.2 µM
- Tmax [1, 5]: 30 min
- half-life [1, 5]: 65.4 min
- AUC(0-t) [1, 6]: 70.6 µM·h
- Cmax [1, 6]: 57.2 µM
- Tmax [1, 6]: 15 min
- half-life [1, 6]: 63 min
- AUC(0-t) [1, 7]: 42 µM·h
- Cmax [1, 7]: 30.1 µM
- Tmax [1, 7]: 30 min
- AUC(0-t) [1, 8]: 77.9 µM·h
- Cmax [1, 8]: 47.1 µM
- Tmax [1, 8]: 30 min
- half-life [1, 8]: 95.4 min
- AUC(0-t) [1, 9]: 145 µM·h
- Cmax [1, 9]: 114 µM
- Tmax [1, 9]: 15 min
- half-life [1, 9]: 48.6 min
- AUC(0-t) [1, 10]: 125 µM·h
- Cmax [1, 10]: 132 µM
- Tmax [1, 10]: 15 min
- half-life [1, 10]: 39.3 min
- Kp at 4 h [1, 3]: 9.8
- Kp at 4 h ([1]; BALB/c, 25 mpk, Group 4, 25 mpk + CS1003): 0.9
- Kp at 1 h [1, 11]: 0.4
- Kp at 4 h [1, 11]: 1.8
- Kp at 1 h ([1]; BALB/c, 50 mpk, Group 7, 50 mpk twice a day alone): 0.7
- Kp at 4 h ([1]; BALB/c, 50 mpk, Group 8, 50 mpk twice a day + CS1003): 36
- Kp at 1 h [1, 12]: 0.6
- Kp at 4 h [1, 12]: 0.9
- Kp at 1 h [1, 13]: 0.5
- Kp at 4 h [1, 13]: 4.2
- tumor inhibition rate ([2]; 25 mg/kg once a day combined with 1 mg/kg CS1003, p<0.001): 63.16%
- tumor volume ([2]; 25 mg/kg once a day intragastric combined with 1 mg/kg CS1003, end of experiment (day 20)): 312.06+80.17 mm^3
- tumor inhibition rate ([2]; 50 mg/kg once a day combined with 1 mg/kg CS1003, p<0.001): 70.90%
- tumor volume ([2]; 50 mg/kg once a day intragastric combined with 1 mg/kg CS1003, end of experiment (day 20)): 246.48+62.57 mm^3
- tumor inhibition rate ([2]; 50 mg/kg twice a day in combination with CS1003, P<0.001): 83.22%
- average tumor volume ([2]; 50 mg/kg twice a day intragastric in combination with CS1003, end of experiment (day 20)): 142.17+40.30 mm^3
- tumor inhibition rate ([2]; 100 mg/kg once a day combined with 1 mg/kg CS1003, p<0.001): 72.48%
- tumor volume ([2]; 100 mg/kg once a day intragastric combined with 1 mg/kg CS1003, end of experiment (day 20)): 233.10+59.55 mm^3
